Measured values reported in patent US10799522B2, “Compositions and methods relating to galectin detection” (Wayne State University, priority 2015, dated 2020).
“Also recorded” adds a separate entry of the source.

Key:
[1] = dynamic PET/CT imaging, pharmacokinetics and biodistribution in a normal rat; format: in vivo, Sprague-Dawley rats
Method: Sprague-Dawley rats (males, ˜250 g) were anesthetized using inhalation of 2% isoflurane in oxygen, and their body temperature maintained at 37° C. by a heating pad with a feedback temperature control. […] Dynamic PET images were acquired in the list-mode and reconstructed using OSEM algorithm at multiple time frames post radiotracer administration (0-2, 2-4, 4-6, 6-8, 8-10, 10-20, 20-30, 30-40, 40-50, 50-60 min), followed by a whole body image that has been acquired using 3 consecutive bed positions, 5 min/bed position. Thereafter, while still fixed to the positioning bed, the rats were moved with the bed into the gantry of the INVEON SPECT/CT (Siemens) and CT images were acquired over the whole body area for attenuation correction of PET images and for production of PET/CT images. PET/CT fusion images were generated and analyzed using the AMIDE software version 1.0.4. […] The data was analyzed using GraphPad Prism version 6 (GraphPad Prism, Inc.) and pharmacokinetic parameters of clearance were calculated by fitting the resultant time-activity curves with exponential or bi-exponential functions.

[2] = test system: orthotopic human breast carcinoma xenograft (MCF10DCIS); test: dynamic PET/CT imaging, pharmacokinetics and biodistribution in tumor-bearing mice; format: in vivo, immunedeficient nu/nu mice
Method: A single (unilateral) orthotopic breast carcinoma xenograft was established in immunedeficient nu/nu mice by injection of human breast ductal carcinoma in situ cells (MCF10DCIS) in Matrigel into one of the upper mammary fat pad.
Tumor-bearing mice (˜20-25 g) were anesthetized using inhalation of 2% isoflurane in oxygen, and their body temperature maintained at 38° C. by a heating pad with a feedback temperature control. […] Dynamic PET images were acquired in list-mode and reconstructed using OSEM algorithm at multiple time frames post radiotracer administration (0-2, 2-4, 4-6, 6-8, 8-10, 10-20, 20-30, 30-40, 40-50, 50-60 min). Thereafter, while still fixed to the positioning bed, the mice were moved with the bed into the gantry of INVEON SPECT/CT (Siemens), and CT images were acquired over the whole body area for attenuation correction of PET images and for production of PET/CT images. PET/CT fusion images were generated and analyzed in a similar manner as when studying rats.

[3] = rats, i.v., bi-exponential clearance from the blood
[4] = rats, i.v., mono-exponential kinetics
[5] = tumor-bearing mice, i.v., bi-exponential clearance from the blood
[6] = tumor-bearing mice, mono-exponential kinetics

## OCC1OC(SC2OC(CO)C(O)C(n3cc(-c4cccc([18F])c4)nn3)C2O)C(O)C(n2cc(-c3cccc(F)c3)nn2)C1O [[^18F]FPTDG, 3-(3-[^18F]fluorophenyltriazolyl)-3-deoxy-3′-(3-fluorophenyltriazolyl)-3′-deoxy-1-thio-β-D-digalactopyranoside]
[1]; [^18F]-fluoride radioactivity accumulation in the bone
  defluorination: Minimal, but detectable
[1]; after 75 min post intravenous administration
  radioactivity levels in all major organs and tissues, including the liver and gall bladder: very low
[1]; based on dynamic PET/CT imaging results
  primary radiation dose-limiting organs: liver and gall bladder; also recorded: liver and gallbladder
[1]; radiotracer doses
  pharmacologic toxicity: No pharmacologic toxicity can be anticipated or actually observed; also recorded: No acute pharmacologic toxicity at radiotracer doses has been observed
[1]; rats, i.v.
  accumulation or retention of radioactivity in the lungs, muscles, and other organs and tissues: extremely low; also recorded: No substantial uptake or retention
  crossing of the blood-brain barrier (radioactivity in the brain): does not cross the blood-brain barrier (BBB)
  route of excretion: predominantly via the hepatobiliary route of excretion; also recorded: primarily excreted via the hepatobiliary route
[1]; [3]
  blood fast clearance half-time: 0.5 min
  blood slow clearance half-time: 7.36 min
[1]; [4]
  kidney clearance half-time: 68 min
  liver clearance half-time: 53 min
[1]; rats, i.v., radioactivity in the bladder
  renal clearance: insignificant
[1]; rats, bone accumulation at 60-75 min post injection
  magnitude of catabolism: negligible
[2]; 20 to 60 min post i.v. injection
  retention in MCF10DCIS xenografts: significant retention
[2]; mice, PET/CT
  accumulation of radioactivity in normal mammary fat pads: no accumulation of radioactivity was detectable
[2]; mice, i.v.
  accumulation or retention of radioactivity in the lungs, muscles, and other organs and tissues: extremely low
  crossing of the blood-brain barrier (radioactivity in the brain): does not cross the blood-brain barrier (BBB) in mice either
[2]; mice, bone accumulation at 60 min post injection
  magnitude of catabolism: negligible
[2]; mice, muscle as reference tissue
  increased binding and accumulation in MCF10DCIS, as compared to normal breast tissue and muscle (Logan graphical analysis): 2-3 fold
[2]; mice, radioactivity in the bladder
  renal clearance: more active in mice, as compared with rats
[2]; tumor-bearing mice, i.v.
  route of excretion: predominantly via the hepatobiliary route of excretion
[2]; [5]
  blood fast clearance half-time: ~0.5 min
  blood slow clearance half-time: ~10.5 min
[2]; [6]
  kidney clearance half-time: 37 min
  liver clearance half-time: ~120 min
